Data from patent publication US20200024278A1, “COMPOSITION COMPRISING ANTIBIOTIC COMPOUND AND AN HETEROCYCLIC COMPOUND AND THEIR USE IN PREVENTING OR TREATING BACTERIAL INFECTIONS” (MUTABILIS, priority 2016, published 2020).

Experiments:
Assay in all cases: MIC, broth microdilution (CLSI), substance alone or ATB combined with compound at 4 or 8 μg/mL
SAU 29213 = assay type: cell-based, S. aureus; settings: SAU 29213
Outline: (§1)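 Antibiotic MICs were determined in presence of fixed compound at 4 or 8 μg/mL, and compound MICs alone, by visual growth inhibition. Inoculum 5·10^5 CFU/mL in ca-MHB, incubated 35 °C for 16-20 h per CLSI-M7-A7. Glucose-6-phosphate (25 μg/ml) added when fosfomycin was tested.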

ECL P99 = assay type: cell-based, E. cloacae; settings: ECL P99
Outline: as §1

SPN 49619 = assay type: cell-based, S. pneumoniae; settings: SPN 49619
Outline: as §1

PAE 105250 = assay type: cell-based, P. aeruginosa; settings: PAE 105250
Outline: as §1

PAE UFR48 = assay type: cell-based, P. aeruginosa; settings: PAE UFR48
Outline: as §1

PAE UFR90 = assay type: cell-based, P. aeruginosa; settings: PAE UFR90
Outline: as §1

KPN 6299 = assay type: cell-based, K. pneumoniae
Experimental: (§2) Compounds of the present invention were assessed against genotyped bacterial strains alone or in combination with an antibacterial. In the assays, MICs of said compounds or combination of antibiotics with fixed concentrations of said compounds (4 or 8 μg/mL) were determined by the broth microdilution method according to the Clinical Laboratory Standards Institute (CLSI-M7-A7). Briefly, compounds alone according to the invention were prepared in DMSO and spotted (2 μL each) on sterile polystyrene plates (Corning, 3788). Combinations of compounds and antibiotics dilutions were prepared in DMSO and spotted (1 μL each) on sterile polystyrene plates (Corning, 3788). Log phase bacterial suspensions were adjusted to a final density of 5·10^5 CFU/mL in cation-adjusted Mueller-Hinton broth (ca-MHB; Becton-Dickinson and Company) and added to each well (98 μL). Assays including Fosfomycin were supplemented with 25 μg/ml of Glucose-6-phosphate. Microplates were incubated for 16-20 h at 35° C. in ambient air. The MIC of the compounds was defined as the lowest concentration of said compounds that prevented bacterial growth as read by visual inspection. The MIC of ATB at each compound concentration was defined as the lowest concentration of ATB that prevented bacterial growth as read by visual inspection.

KPN BAA-1898 = assay type: cell-based, K. pneumoniae; settings: KPN BAA-1898
Experimental: as §2

KPN UFR42 = assay type: cell-based, K. pneumoniae; settings: KPN UFR42
Experimental: as §2

ECO UFR39 = assay type: cell-based, E. coli; settings: ECO UFR39
Outline: as §1

ECO 190317 = assay type: cell-based, E. coli; settings: ECO 190317
Outline: as §1

## CO/N=C(\C(=O)N[C@@H]1C(=O)N2C(C(=O)[O-])=C(C[n+]3cccc4c3CCC4)CS[C@H]12)c1csc(N)n1 [CPO]
SAU 29213; CPO alone
  MIC ATB alone: 1 µg/mL
SAU 29213; antibiotic alone
  MIC ATB alone: 1 µg/mL
SAU 29213; with Example 1 @8 μg/ml
  MIC ATB combined with Example 1 @8 μg/ml: 1 µg/mL
SAU 29213; with Example 9 @4 μg/ml
  MIC ATB combined with Example 9 @4 μg/ml: <0.031 µg/mL
ECL P99; antibiotic alone
  MIC ATB alone: 16 µg/mL
ECL P99; with Example 1 @8 μg/ml
  MIC ATB combined with Example 1 @8 μg/ml: <0.031 µg/mL
ECL P99; with Example 1 at 8 μg/ml
  MIC ATB combined with Example 1 @8 μg/ml: <0.031 µg/mL
ECL P99; with Example 7 at 8 μg/ml
  MIC ATB combined with Example 7 @8 μgml: <=0.031 μg/mL
ECL P99; with Example 9 @4 μg/ml
  MIC ATB combined with Example 9 @4 μg/ml: <0.031 µg/mL
ECL P99; with Example 9 at 4 μg/ml
  MIC ATB combined with Example 9 @4 μg/ml: <0.031 µg/mL
ECL P99; with Example 11 at 8 μg/ml
  MIC ATB combined with Example 11 @8 μg/ml: <0.031 µg/mL
ECL P99; with Example 12 at 8 μg/ml
  MIC ATB combined with Example 12 @8 μg/ml: <0.031 µg/mL
ECL P99; with Example 13 at 8 μg/ml
  MIC ATB combined with Example 13 @8 μg/ml: 0.063 µg/mL
ECL P99; with Example 14 at 8 μg/ml
  MIC ATB combined with Example 14 @8 μg/ml: <0.031 µg/mL
ECL P99; with Example 15 at 4 μg/ml
  MIC ATB combined with Example 15 @4 μgml: <0.031 µg/mL
ECL P99; with Example 16 at 4 μg/ml
  MIC ATB combined with Example 16 @4 μg/ml: <0.031 µg/mL
SPN 49619; CPO alone
  MIC ATB alone: <=0.031 μg/mL
SPN 49619; antibiotic alone
  MIC ATB alone: <=0.031 μg/mL
SPN 49619; with Example 1 @8 μg/ml
  MIC ATB combined with Example 1 @8 μg/ml: <=0.031 μg/mL
SPN 49619; with Example 9 @4 μg/ml
  MIC ATB combined with Example 9 @4 μg/ml: <=0.031 μg/mL
PAE 105250; CPO alone
  MIC ATB alone: 32 µg/mL
PAE 105250; antibiotic alone
  MIC ATB alone: 32 µg/mL
PAE 105250; with Example 1 @8 μg/ml
  MIC ATB combined with Example 1 @8 μg/ml: <0.031 µg/mL
PAE 105250; with Example 9 @4 μg/ml
  MIC ATB combined with Example 9 @4 μg/ml: 32 µg/mL
PAE UFR48; CPO alone
  MIC ATB alone: >32 µg/mL
PAE UFR48; antibiotic alone
  MIC ATB alone: >32 µg/mL
PAE UFR48; with Example 1 @8 μg/ml
  MIC ATB combined with Example 1 @8 μg/ml: <0.031 µg/mL
PAE UFR48; with Example 9 @4 μg/ml
  MIC ATB combined with Example 9 @4 μg/ml: >32 µg/mL
PAE UFR90; CPO alone
  MIC ATB alone: >32 µg/mL
PAE UFR90; antibiotic alone
  MIC ATB alone: >32 µg/mL
PAE UFR90; with Example 1 @8 μg/ml
  MIC ATB combined with Example 1 @8 μg/ml: <0.031 µg/mL
PAE UFR90; with Example 9 @4 μg/ml
  MIC ATB combined with Example 9 @4 μg/ml: 8 µg/mL
KPN 6299; antibiotic alone
  MIC ATB alone: >256 µg/mL
KPN 6299; with Example 1 @8 μg/ml
  MIC ATB combined with Example 1 @8 μg/ml: 0.5 µg/mL
KPN 6299; with Example 1 at 8 μg/ml
  MIC ATB combined with Example 1 @8 μg/ml: 0.5 µg/mL
KPN 6299; with Example 7 at 8 μg/ml
  MIC ATB combined with Example 7 @8 μgml: 0.063 µg/mL
KPN 6299; with Example 9 @4 μg/ml
  MIC ATB combined with Example 9 @4 μg/ml: <=0.031 μg/mL
KPN 6299; with Example 9 at 4 μg/ml
  MIC ATB combined with Example 9 @4 μg/ml: <=0.031 μg/mL
KPN 6299; with Example 11 at 8 μg/ml
  MIC ATB combined with Example 11 @8 μg/ml: <0.031 µg/mL
KPN 6299; with Example 12 at 8 μg/ml
  MIC ATB combined with Example 12 @8 μg/ml: <0.031 µg/mL
KPN 6299; with Example 13 at 8 μg/ml
  MIC ATB combined with Example 13 @8 μg/ml: 0.125 µg/mL
KPN 6299; with Example 14 at 8 μg/ml
  MIC ATB combined with Example 14 @8 μg/ml: <0.031 µg/mL
KPN 6299; with Example 15 at 4 μg/ml
  MIC ATB combined with Example 15 @4 μgml: <=0.031 μg/mL
KPN 6299; with Example 16 at 4 μg/ml
  MIC ATB combined with Example 16 @4 μg/ml: <0.031 µg/mL
KPN BAA-1898; antibiotic alone
  MIC ATB alone: >256 µg/mL
KPN BAA-1898; with Example 1 @8 μg/ml
  MIC ATB combined with Example 1 @8 μg/ml: 0.125 µg/mL
KPN BAA-1898; with Example 1 at 8 μg/ml
  MIC ATB combined with Example 1 @8 μg/ml: 0.125 µg/mL
KPN BAA-1898; with Example 7 at 8 μg/ml
  MIC ATB combined with Example 7 @8 μgml: <0.031 µg/mL
KPN BAA-1898; with Example 9 @4 μg/ml
  MIC ATB combined with Example 9 @4 μg/ml: <0.031 µg/mL
KPN BAA-1898; with Example 9 at 4 μg/ml
  MIC ATB combined with Example 9 @4 μg/ml: <0.031 µg/mL
KPN BAA-1898; with Example 11 at 8 μg/ml
  MIC ATB combined with Example 11 @8 μg/ml: <=0.031 μg/mL
KPN BAA-1898; with Example 12 at 8 μg/ml
  MIC ATB combined with Example 12 @8 μg/ml: <0.031 µg/mL
KPN BAA-1898; with Example 13 at 8 μg/ml
  MIC ATB combined with Example 13 @8 μg/ml: 0.5 µg/mL
KPN BAA-1898; with Example 14 at 8 μg/ml
  MIC ATB combined with Example 14 @8 μg/ml: <0.031 µg/mL
KPN BAA-1898; with Example 15 at 4 μg/ml
  MIC ATB combined with Example 15 @4 μgml: <=0.031 μg/mL
KPN BAA-1898; with Example 16 at 4 μg/ml
  MIC ATB combined with Example 16 @4 μg/ml: <0.031 µg/mL
KPN UFR42; CPO alone
  MIC ATB alone: >32 µg/mL
KPN UFR42; antibiotic alone
  MIC ATB alone: >32 µg/mL
KPN UFR42; with Example 1 @8 μg/ml
  MIC ATB combined with Example 1 @8 μg/ml: 16 µg/mL
KPN UFR42; with Example 9 @4 μg/ml
  MIC ATB combined with Example 9 @4 μg/ml: <0.031 µg/mL
ECO UFR39; CPO alone
  MIC ATB alone: >32 µg/mL
ECO UFR39; antibiotic alone
  MIC ATB alone: >32 µg/mL
ECO UFR39; with Example 1 @8 μg/ml
  MIC ATB combined with Example 1 @8 μg/ml: <0.031 µg/mL
ECO UFR39; with Example 9 @4 μg/ml
  MIC ATB combined with Example 9 @4 μg/ml: <0.031 µg/mL
ECO 190317; antibiotic alone
  MIC ATB alone: >256 µg/mL
ECO 190317; with Example 1 @8 μg/ml
  MIC ATB combined with Example 1 @8 μg/ml: <0.031 µg/mL
ECO 190317; with Example 1 at 8 μg/ml
  MIC ATB combined with Example 1 @8 μg/ml: <0.031 µg/mL
ECO 190317; with Example 7 at 8 μg/ml
  MIC ATB combined with Example 7 @8 μgml: <0.031 µg/mL
ECO 190317; with Example 9 @4 μg/ml
  MIC ATB combined with Example 9 @4 μg/ml: <0.031 µg/mL
ECO 190317; with Example 9 at 4 μg/ml
  MIC ATB combined with Example 9 @4 μg/ml: <0.031 µg/mL
ECO 190317; with Example 11 at 8 μg/ml
  MIC ATB combined with Example 11 @8 μg/ml: <0.031 µg/mL
ECO 190317; with Example 12 at 8 μg/ml
  MIC ATB combined with Example 12 @8 μg/ml: <0.031 µg/mL
ECO 190317; with Example 13 at 8 μg/ml
  MIC ATB combined with Example 13 @8 μg/ml: <0.031 µg/mL
ECO 190317; with Example 14 at 8 μg/ml
  MIC ATB combined with Example 14 @8 μg/ml: <0.031 µg/mL
ECO 190317; with Example 15 at 4 μg/ml
  MIC ATB combined with Example 15 @4 μgml: <=0.031 μg/mL
ECO 190317; with Example 16 at 4 μg/ml
  MIC ATB combined with Example 16 @4 μg/ml: <0.031 µg/mL
